From ChEMBL document CHEMBL1671662, “In vitro activities of telavancin and six comparator agents against anaerobic bacterial isolates” (2009)
≈ marks a conversion by molar mass, not a printed value.

Assays:
Assay type in all cases: functional
Parabacteroides merdae = experiment: Antibacterial activity against Parabacteroides merdae by CLSI M11-A6 agar dilution method in presence of beta-lactamase inhibitor Sulbactam
Clostridium subterminale = experiment: Antibacterial activity against Clostridium subterminale by CLSI M11-A6 agar dilution method in presence of beta-lactamase inhibitor Sulbactam
[1] = system: Bifidobacterium pseudolongum; experiment: Antibacterial activity against Bifidobacterium pseudolongum by CLSI M11-A6 agar dilution method in presence of beta-lactamase inhibitor Sulbactam
Prevotella intermedia [2] = experiment: Antibacterial activity against Prevotella intermedia by CLSI M11-A6 agar dilution method
[3] = system: Sutterella wadsworthensis; experiment: Antibacterial activity against Sutterella wadsworthensis by CLSI M11-A6 agar dilution method
Flavonifractor plautii = experiment: Antibacterial activity against Clostridium orbiscindens by CLSI M11-A6 agar dilution method
Holdemania filiformis = experiment: Antibacterial activity against Holdemania filiformis by CLSI M11-A6 agar dilution method
Thomasclavelia ramosa = experiment: Antibacterial activity against Clostridium ramosum by CLSI M11-A6 agar dilution method
Prevotella oris = experiment: Antibacterial activity against Prevotella oris by CLSI M11-A6 agar dilution method; details: Segatella oris
[4] = system: Peptoniphilus asaccharolyticus; experiment: Antibacterial activity against Peptoniphilus asaccharolyticus by CLSI M11-A6 agar dilution method
Prevotella disiens = experiment: Antibacterial activity against Prevotella P disiens by CLSI M11-A6 agar dilution method
Clostridium bolteae = experiment: Antibacterial activity against Clostridium bolteae by CLSI M11-A6 agar dilution method; details: Enterocloster bolteae
Phocaeicola vulgatus = experiment: Antibacterial activity against Bacteroides vulgatus by CLSI M11-A6 agar dilution method
[5] = system: Paraclostridium bifermentans; experiment: Antibacterial activity against Clostridium bifermentans by CLSI M11-A6 agar dilution method
Clostridium perfringens = experiment: Antibacterial activity against Clostridium perfringens by CLSI M11-A6 agar dilution method
[6] = system: Streptococcus constellatus; experiment: Antibacterial activity against Streptococcus constellatus by CLSI M11-A6 agar dilution method
Prevotella nigrescens = experiment: Antibacterial activity against Prevotella nigrescens by CLSI M11-A6 agar dilution method
Prevotella intermedia [7] = experiment: Antibacterial activity against Prevotella P intermedia by CLSI M11-A6 agar dilution method
Clostridium tertium = experiment: Antibacterial activity against Clostridium tertium by CLSI M11-A6 agar dilution method
Clostridium hathewayi = experiment: Antibacterial activity against Clostridium hathewayi by CLSI M11-A6 agar dilution method; details: Hungatella hathewayi
Bacteroides ovatus = experiment: Antibacterial activity against Bacteroides ovatus by CLSI M11-A6 agar dilution method
Ruminococcus sp. = experiment: Antibacterial activity against Ruminococcus sp. by CLSI M11-A6 agar dilution method
Clostridium butyricum = experiment: Antibacterial activity against Clostridium butyricum by CLSI M11-A6 agar dilution method
[8] = system: Peptostreptococcus anaerobius; experiment: Antibacterial activity against Peptostreptococcus anaerobius by CLSI M11-A6 agar dilution method
Ruminococcus albus = experiment: Antibacterial activity against Ruminococcus albus by CLSI M11-A6 agar dilution method; details: Hominimerdicola alba
[9] = system: Prevotella melaninogenica; experiment: Antibacterial activity against Prevotella melaninogenica by CLSI M11-A6 agar dilution method
Clostridium = experiment: Antibacterial activity against Clostridium hypermegas by CLSI M11-A6 agar dilution method
Fusobacterium varium = experiment: Antibacterial activity against Fusobacterium varium by CLSI M11-A6 agar dilution method
[10] = system: Clostridium celerecrescens; experiment: Antibacterial activity against Clostridium celerecrescens by CLSI M11-A6 agar dilution method; details: Lacrimispora celerecrescens
Odoribacter splanchnicus = experiment: Antibacterial activity against Bacteroides splanchnicus by CLSI M11-A6 agar dilution method
[11] = system: Clostridium paraputrificum; experiment: Antibacterial activity against Clostridium paraputrificum by CLSI M11-A6 agar dilution method
Clostridium sporogenes = experiment: Antibacterial activity against Clostridium sporogenes by CLSI M11-A6 agar dilution method
Parvimonas micra = experiment: Antibacterial activity against Peptostreptococcus micros by CLSI M11-A6 agar dilution method
[12] = system: Propionibacterium propionicum; experiment: Antibacterial activity against Propionibacterium propionicus by CLSI M11-A6 agar dilution method; details: Arachnia propionica
[13] = system: Streptococcus intermedius; experiment: Antibacterial activity against Streptococcus intermedius by CLSI M11-A6 agar dilution method
Prevotella bivia = experiment: Antibacterial activity against Prevotella bivia by CLSI M11-A6 agar dilution method
Hoylesella loescheii = experiment: Antibacterial activity against Prevotella loescheii by CLSI M11-A6 agar dilution method
Clostridioides difficile = experiment: Antibacterial activity against Clostridium difficile by CLSI M11-A6 agar dilution method
Blautia producta = experiment: Antibacterial activity against Ruminococcus productus by CLSI M11-A6 agar dilution method
Eggerthella lenta = experiment: Antibacterial activity against Eggerthella lenta by CLSI M11-A6 agar dilution method
Collinsella aerofaciens = experiment: Antibacterial activity against Colinsella aerofaciens by CLSI M11-A6 agar dilution method
Bacteroides fragilis = experiment: Antibacterial activity against Bacteroides fragilis by CLSI M11-A6 agar dilution method

## CC1(C)S[C@@H]2[C@H](NC(=O)[C@H](N)c3ccccc3)C(=O)N2[C@H]1C(=O)O [AMPICILLIN]
Parabacteroides merdae
  MIC50: 8 µg/mL
  MIC90: 32 µg/mL
Clostridium subterminale
  MIC50: ≤ 0.12 µg/mL
  MIC90: 0.25 µg/mL
[1]
  MIC50: 0.25 µg/mL
  MIC90: 1 µg/mL

## Cc1ncc([N+](=O)[O-])n1CCO [METRONIDAZOLE]
Prevotella intermedia [2]
  MIC50: 0.5 µg/mL (≈ 2.92 µM)
  MIC90: 1 µg/mL (≈ 5.84 µM)
[3]
  MIC50: 16 µg/mL (≈ 93.5 µM)
  MIC90: > 128 µg/mL
Flavonifractor plautii
  MIC50: 0.25 µg/mL (≈ 1.46 µM)
  MIC90: 1 µg/mL (≈ 5.84 µM)
Holdemania filiformis
  MIC50: 1 µg/mL (≈ 5.84 µM)
  MIC90: 128 µg/mL (≈ 748 µM)
Thomasclavelia ramosa
  MIC50: 0.5 µg/mL (≈ 2.92 µM)
  MIC90: 1 µg/mL (≈ 5.84 µM)
Prevotella oris
  MIC50: 0.5 µg/mL (≈ 2.92 µM)
  MIC90: 1 µg/mL (≈ 5.84 µM)
[4]
  MIC50: 0.5 µg/mL (≈ 2.92 µM)
  MIC90: 2 µg/mL (≈ 11.7 µM)
Prevotella disiens
  MIC50: 0.5 µg/mL (≈ 2.92 µM)
  MIC90: 1 µg/mL (≈ 5.84 µM)
Clostridium bolteae
  MIC50: ≤ 0.12 µg/mL
  MIC90: 0.25 µg/mL (≈ 1.46 µM)
Phocaeicola vulgatus
  MIC50: 0.5 µg/mL (≈ 2.92 µM)
  MIC90: 1 µg/mL (≈ 5.84 µM)
[5]
  MIC50: 0.25 µg/mL (≈ 1.46 µM)
  MIC90: 1 µg/mL (≈ 5.84 µM)
Clostridium perfringens
  MIC50: 0.5 µg/mL (≈ 2.92 µM)
  MIC90: 1 µg/mL (≈ 5.84 µM)
[6]
  MIC50: 128 µg/mL (≈ 748 µM)
  MIC90: > 128 µg/mL
Prevotella nigrescens
  MIC50: 0.5 µg/mL (≈ 2.92 µM)
  MIC90: 1 µg/mL (≈ 5.84 µM)
Prevotella intermedia [7]
  MIC50: 0.5 µg/mL (≈ 2.92 µM)
  MIC90: 1 µg/mL (≈ 5.84 µM)
Clostridium tertium
  MIC50: 0.25 µg/mL (≈ 1.46 µM)
  MIC90: 1 µg/mL (≈ 5.84 µM)
Clostridium hathewayi
  MIC50: 0.25 µg/mL (≈ 1.46 µM)
  MIC90: 0.5 µg/mL (≈ 2.92 µM)
Bacteroides ovatus
  MIC50: 1 µg/mL (≈ 5.84 µM)
  MIC90: 2 µg/mL (≈ 11.7 µM)
Ruminococcus sp.
  MIC50: 0.5 µg/mL (≈ 2.92 µM)
  MIC90: 2 µg/mL (≈ 11.7 µM)
Clostridium butyricum
  MIC50: 0.25 µg/mL (≈ 1.46 µM)
  MIC90: 1 µg/mL (≈ 5.84 µM)
[8]
  MIC50: 0.5 µg/mL (≈ 2.92 µM)
  MIC90: 2 µg/mL (≈ 11.7 µM)
Ruminococcus albus
  MIC50: ≤ 0.12 µg/mL
  MIC90: 0.25 µg/mL (≈ 1.46 µM)
[9]
  MIC50: 0.5 µg/mL (≈ 2.92 µM)
  MIC90: 1 µg/mL (≈ 5.84 µM)
Clostridium
  MIC50: 0.25 µg/mL (≈ 1.46 µM)
  MIC90: 1 µg/mL (≈ 5.84 µM)
Fusobacterium varium
  MIC50: ≤ 0.12 µg/mL
  MIC90: 0.25 µg/mL (≈ 1.46 µM)
[10]
  MIC50: 0.25 µg/mL (≈ 1.46 µM)
  MIC90: 1 µg/mL (≈ 5.84 µM)
Odoribacter splanchnicus
  MIC50: 0.25 µg/mL (≈ 1.46 µM)
  MIC90: 1 µg/mL (≈ 5.84 µM)
[11]
  MIC50: 0.25 µg/mL (≈ 1.46 µM)
  MIC90: 1 µg/mL (≈ 5.84 µM)
Clostridium sporogenes
  MIC50: 0.25 µg/mL (≈ 1.46 µM)
  MIC90: 1 µg/mL (≈ 5.84 µM)
Parvimonas micra
  MIC50: 0.5 µg/mL (≈ 2.92 µM)
  MIC90: 2 µg/mL (≈ 11.7 µM)
[12]
  MIC50: 1 µg/mL (≈ 5.84 µM)
  MIC90: 128 µg/mL (≈ 748 µM)
[13]
  MIC50: 128 µg/mL (≈ 748 µM)
  MIC90: > 128 µg/mL
Prevotella bivia
  MIC50: 0.5 µg/mL (≈ 2.92 µM)
  MIC90: 1 µg/mL (≈ 5.84 µM)
Hoylesella loescheii
  MIC50: 0.5 µg/mL (≈ 2.92 µM)
  MIC90: 1 µg/mL (≈ 5.84 µM)
Clostridioides difficile
  MIC50: 0.5 µg/mL (≈ 2.92 µM)
  MIC90: 0.5 µg/mL (≈ 2.92 µM)
Blautia producta
  MIC50: ≤ 0.12 µg/mL
  MIC90: 0.25 µg/mL (≈ 1.46 µM)
Eggerthella lenta
  MIC50: 1 µg/mL (≈ 5.84 µM)
  MIC90: 128 µg/mL (≈ 748 µM)
Collinsella aerofaciens
  MIC50: 1 µg/mL (≈ 5.84 µM)
  MIC90: 128 µg/mL (≈ 748 µM)
Bacteroides fragilis
  MIC50: 1 µg/mL (≈ 5.84 µM)
  MIC90: 2 µg/mL (≈ 11.7 µM)
